Article PMC5855875, “Teixobactin analogues reveal enduracididine to be non-essential for highly potent antibacterial activity and lipid II binding” (Chemical Science, 2017)
Values after ≈ are worked out from the molar mass of the structure shown. Bridge positions count the residues as written; N and C are the ends. Square brackets hold non-standard residues; d marks the D form. Peptide text beside a SMILES is read from it. d(aIle) = CC[C@H](C)[C@@H](N)C(=O)O; dNMeF = CN[C@H](Cc1ccccc1)C(=O)O

Legend:
MRSA ATCC 33591 = assay: microbe, parasite or virus in culture
Procedure: (§1) were grown in Mueller Hinton broth (Oxoid) in triplicate. All incubations were at 37°C. Dilutions were carried out in triplicate. 100 µl of autoclaved Mueller Hinton broth was added to wells 2-12 in a 96-well plate. 200 µl of the peptide was added to well one at a concentration of 256 µg/mL. 100µl of peptide in well one was taken up and pipetted into well two. The mixture was then mixed via pipetting before 100µl was taken up and pipetted into well three. This process was repeated up to well 11. Once […]
(§2) peptide present. Thus, the concentrations (in µg/mL) were: 256, 128, 64, 32, 16, 8, 4, 2, 1, 0.5, 0.25 and no peptide present. Each well was then inoculated with 100µl of bacteria that had been diluted to an […]
(§3) This was repeated three times. The 96-well plates were then incubated at 37°C for 24 hours. The MIC was determined to be the lowest concentration at which there was no growth visible. […]
(§4) was repeated at an altered initial concentration of 64 µg/ml. Therefore, the new concentrations for MIC […]
(§5) VIII. MIC testing (extended panel)
(§6) Bacterial cultures were grown overnight i n Mueller-Hinton Agar (MHA) plates and adjusted to a final concentration of 10 5 – 106 CFU/ml. 100 µl of inoculum in Meuller -Hinton broth (MHB) was mixed with equal volume of peptides (dissolved in MHB) at 2x their concentration in a 96 well plate. In parallel experiments, MIC values were determined in the media containing polysorbate 80 (0 .002%, v/v) to […]

MRSA 1: MRSA ATCC 700699 = assay: microbe, parasite or virus in culture; conditions: for MBC: plated on MHA; for MBC / MIC (with polysorbate 80): 24 h; for MIC (with polysorbate 80): MRSA 1, MHB containing polysorbate 80 (0.002%, v/v), two independent duplicates
Procedure: as §5, §6
(§7) prevent non-specific adsorption of the peptides to plastic surfaces. The final peptides concentrations […]
(§8) Positive and negative controls contained 200 µl of inoculum without any peptide dissolved in broth, respectively. The 96 well plates were then incubated at 37 °C for 24 h.
(§9) All the experiments were performed in two independent duplicates and the MIC was determined as the […]
(§10) Minimum bactericidal concentration
(§11) The lowest concentration in which no visible colonies could be detected was taken as the MBC.
(§12) 80. Strain information: MRSA 1: MRSA ATCC 700699, MRSA 2: MRSA DR 42412 (sputum), MRSA
(§13) 3: MRSA DM21455 (eye). […] Staphylococcus aureus ATCC

[1] = system: MRSA 3: MRSA DM21455 (eye); assay: microbe, parasite or virus in culture; conditions: for MIC (with polysorbate 80): MRSA 3, MHB containing polysorbate 80 (0.002%, v/v)
Procedure: as §5, §6, §7, §8, §9, §10, §11, §12, §13

[2] = system: Staphylococcus aureus ATCC 29213; assay: microbe, parasite or virus in culture; conditions: for MIC (without polysorbate 80): ATCC 29213, 24 h; for MIC (with polysorbate 80): S. aureus ATCC 29213, MHB containing polysorbate 80 (0.002%, v/v); for MIC (with polysorbate 80) / MBC: 37 °C, 24 h; for MBC: Staphylococcus aureus ATCC 29213, plated on MHA
Procedure: as §5, §6, §7, §8, §9, §10, §11, §12, §13

[3] = system: MRSA 2: MRSA DR 42412 (sputum); assay: microbe, parasite or virus in culture; conditions: for MIC (with polysorbate 80): MRSA 2, MHB containing polysorbate 80 (0.002%, v/v)
Procedure: as §5, §6, §7
(§14) Positive and negative controls contained 200 µl of inoculum without any peptide dissolved in broth, respectively. The 96 well plates were then incubated at 37 °C for 24 h. […]
as §12, §13

VRE 1: VRE ATCC 700802 = assay: organism not typed; conditions: for MIC (with polysorbate 80): VRE 1, MHB containing polysorbate 80 (0.002%, v/v), 37 °C, 24 h
Procedure: as §5, §6, §7, §14, §12, §13

VRE 2: VRE ATCC 29212 = assay: organism not typed; conditions: for MIC (with polysorbate 80): VRE 2, MHB containing polysorbate 80 (0.002%, v/v), 37 °C, 24 h
Procedure: as §5, §6, §7, §14, §12, §13

M. smegmatis ATCC 607 = assay: microbe, parasite or virus in culture
Procedure: as §1, §2, §3, §4
Middlebrook 7H9 broth (SIGMA) supplemented to 5% Middlebrook ADC (SIGMA) growth

[4] = Lipid II TLC binding assay; conditions: peptide : lipid II 2 : 1; 50 mM Tris/HCl, pH 7.5, 30 min, room temperature; three independent experiments
Procedure: X. Complex formation of teixobactin with lipid II and geranyl pyrophosphate Complex formation of teixobactin analogues 8 (Ala10-teixobactin) and 16 (Arg10-teixobactin) with lipid II and geranyl pyrophosphate was performed using TLC as described previously.7 Binding of teixobactin to lipid II and geranyl pyrophosphate was analysed by incubating 30 µL of 2 nmol of each precursor with 2 or 4 nmoles of teixobactin in 50 mM Tris/HCl, pH 7.5, for 30 min at room temperature. Complex formation was analysed by extracting unbound precursors from the reaction mixture with 30 µL n- butanol/6M pyridine acetate (pH 4.2) (2:1; vol/vol) followed by TLC analysis of the organic layer using chloroform/methanol/water/ammonia (88:48:10:1, v/v/v/v) as the solvent and detection of lipid/phosphate containing precursors by phosphomolybdic acid staining. The TLC figures represent the results obtained through thr ee independent experiments.
Figure S76 : Binding of teixobactin analogues 8 (Ala10-teixobactin ) and 16 (Arg10-teixobactin) with lipid II using the protocols described in literature .7 Partial binding is observed when the ratio of lipid II to the analogue is 1:1 (indicated by lighter spots on the TLC) and complete binding is observed when the ratio of lipid II to the analogue is 1:2 in case of analogue 16 and 1:4 in case of analogue 8 (indicated […]
(§15) (also on this page, place not known: polyso rbate vancomycin , concentr ation 80 . wer e µ l (10 1-105 10 10 previously n - TL C three S76: (Ala10-teixobactin) literature.7 Lipid II Lipid II: Compound 8 = 1:1 Lipid II: Compound 16 = 1:1 Lipid II: Compound 8 = 1:2 Lipid II: Compound 16 = 1:2 Lipid II: Compound 8 = 1:4)

MRSA DM21455 = assay: Time-kill kinetics; assay type: cell-based, Methicillin-resistant Staphylococcus aureus; conditions: 0.5 μg mL^–1; MHB containing 0.002% v/v polysorbate 80; 37 °C; average of two independent experiments
Procedure: IX. Time-dependent killing of bacteria by teixobactin analogues 12 and 13 Time-kill kinetics against MRSA DM21455 strains (clinical isolates from patients) was carried out in MHB. Cultures were grown overnight in MHA plates and adjusted to a final inoculum of 10^5 – 10^6 CFU/ml in MHB (containing 0.002% v/v, polysorbate 80) with teixobactin analogues 12 and 13 maintained at a final concentration of 0.5 µg/ml. For vancomycin, the concentration was varied from 0.5 – 16 µg/ml without polysorbate 80. The tubes were then incubated at 37 °C. 100 µl of cell suspension was withdrawn at various time points (0, 2, 4, 8, 24 h), serially diluted (101-105 fold dilutions) and plated onto a MHA plates and incubated for 24 h at 37 °C.
Colonies were then enumerated […]. Colony counting too numerous to count (>300 colonies) was taken as 1010 CFU. Average values from two independent experiments are reported. […]
as §15

rabbit erythrocytes = assay type: cell-based; conditions: rabbit erythrocytes 4% v/v; peptides 0.195 – 250 µg/ml; 37°C, 1 h; haemoglobin release spectrophotometrically; average of triplicate experiments
Procedure: Fig. 5 Hemolytic activity of teixobactin analogues 12 and 13 for rabbit erythrocytes. The blood cells were exposed to various concentrations of peptides for 1 h and the release of haemoglobin was determined spectrophotometrically. Each value represents an average of triplicate experiments.
Cytotoxicity assay by Formazan bioreduction
Medium (DMEM) supplemented with 10% serum. The cells were repeatedly rinsed with Hank’s
in HBSS 24 hrs post-seeding.
were incubated for 3 hrs at 37°C.
XII. Haemolytic Assay Protocol
Hemolytic assay was performed

[5] = MRSA 1 (MRSA ATCC 700699), 37 °C

| Compound | MIC (without polysorbate 80) (MRSA 1: MRSA ATCC 700699; ATCC 700699, 24 h) [µg/mL] | MBC (MRSA 1: MRSA ATCC 700699; [5]) [μg mL^–1] | MIC (with polysorbate 80) (MRSA 1: MRSA ATCC 700699; 37 °C) [µg/mL] | MIC (without polysorbate 80) ([1]; 3: DM21455 (eye, 24 h)) [µg/mL] | MIC (with polysorbate 80) ([1]; 37 °C, 24 h) [µg/mL] | MIC (without polysorbate 80) [2] [µg/mL] | MIC (with polysorbate 80) [2] [µg/mL] | MBC [2] [μg mL^–1] | MIC (without polysorbate 80) ([3]; 2: DR 42412 (sputum, 24 h)) [µg/mL] | MIC (with polysorbate 80) ([3]; 37 °C, 24 h) [µg/mL] | MIC (without polysorbate 80) (VRE 1: VRE ATCC 700802; ATCC 700802, 24 h) [µg/mL] | MIC (with polysorbate 80) (VRE 1: VRE ATCC 700802) [µg/mL] | MIC (without polysorbate 80) (VRE 2: VRE ATCC 29212; ATCC 29212, 24 h) [µg/mL] | MIC (with polysorbate 80) (VRE 2: VRE ATCC 29212) [µg/mL] | lipid II spot on TLC [4] | other results |
| --- | --- | --- | --- | --- | --- | --- | --- | --- | --- | --- | --- | --- | --- | --- | --- | --- |
| CC[C@H](C)[C@H](NC(=O)[C@@H](Cc1ccccc1)NC)C(=O)N[C@@H](CO)C(=O)N[C@H](CCC(N)=O)C(=O)N[C@@H](C(=O)N[C@H](C(=O)N[C@@H](CO)C(=O)N[C@H]1C(=O)N[C@@H](C)C(=O)N[C@@H](CCCNC(=N)N)C(=O)N[C@@H]([C@@H](C)CC)C(=O)O[C@H]1C)[C@@H](C)CC)[C@@H](C)CC [Compound 16, Arg10-teixobactin] | 4 (≈ 3.21 µM) | 2 | 1 (≈ 0.804 µM) | 4 (≈ 3.21 µM) | 0.5 (≈ 0.402 µM) | 2 (≈ 1.61 µM) | 0.25 (≈ 0.201 µM) | 1 | 2 (≈ 1.61 µM) | 0.125 (≈ 0.1 µM) | 4 (≈ 3.21 µM) | 2 (≈ 1.61 µM) | 4 (≈ 3.21 µM) | 2 (≈ 1.61 µM) | complete disappearance of the lipid II spot | MIC (MRSA ATCC 33591; MRSA ATCC 33591, Mueller Hinton broth (Oxoid), peptides in DMSO containing 0.002% polysorbate 80, 37°C, 24 h, triplicate): 2 μg mL^–1; MIC (MRSA 1: MRSA ATCC 700699; MRSA 1 (MRSA ATCC 700699), Mueller Hinton broth, 37 °C, 24 h (Table 2)): 1 μg mL^–1; MBC ([1]; MRSA 3 (MRSA DM21455), plated on MHA, 37 °C, 24 h): 1 μg mL^–1; MIC ([1]; MRSA 3 (MRSA DM21455, eye, clinical isolate), Mueller Hinton broth, 37 °C, 24 h (Table 2)): 0.5 μg mL^–1; MBC ([3]; MRSA 2 (MRSA DR 42412), plated on MHA, 37 °C, 24 h): 0.5 μg mL^–1; MIC ([3]; MRSA 2 (MRSA DR 42412, sputum, clinical isolate), Mueller Hinton broth, 37 °C, 24 h (Table 2)): 0.125 μg mL^–1; MIC (VRE 1: VRE ATCC 700802; VRE 1 (Enterococcus faecalis VRE ATCC 700802), Mueller Hinton broth (Table 2)): 2 μg mL^–1; MIC (VRE 2: VRE ATCC 29212; VRE 2 (Enterococcus faecalis VRE ATCC 29212), Mueller Hinton broth (Table 2)): 2 μg mL^–1; MIC (M. smegmatis ATCC 607; M. smegmatis ATCC 607, Middlebrook 7H9 broth with 5% ADC, 37°C, 140RPM, reading after 72 hours): 1–2 μg mL^–1 |
| CC[C@H](C)[C@H](NC(=O)[C@@H](Cc1ccccc1)NC)C(=O)N[C@@H](CO)C(=O)N[C@H](CCC(N)=O)C(=O)N[C@@H](C(=O)N[C@H](C(=O)N[C@@H](CO)C(=O)N[C@H]1C(=O)N[C@@H](C)C(=O)N[C@@H](CC(C)C)C(=O)N[C@@H]([C@@H](C)CC)C(=O)O[C@H]1C)[C@@H](C)CC)[C@@H](C)CC [Compound 13, Leu10-teixobactin] (H-[dNMeF]IS[dQ][d(aIle)]IS[dT]ALI; ester 8-C) | 2 (≈ 1.66 µM) | 2 | 0.25 (≈ 0.208 µM) | 2 (≈ 1.66 µM) | ≤ 0.0625 | 1 (≈ 0.832 µM) | ≤ 0.0625 | 0.125 | 2 (≈ 1.66 µM) | ≤ 0.0625 | 2 (≈ 1.66 µM) | 0.25 (≈ 0.208 µM) | 2 (≈ 1.66 µM) | 0.25 (≈ 0.208 µM) | complete disappearance of the lipid II spot | MIC (MRSA ATCC 33591; ATCC 33591, 24 h): 0.25 μg mL^–1; MIC (MRSA 1: MRSA ATCC 700699; ATCC 700699, 24 h): 0.25 μg mL^–1; MIC ([1]; 3: DM21455 (eye, 24 h)): ≤0.0625 μg mL^–1; MIC ([3]; 2: DR 42412 (sputum, 24 h)): ≤0.0625 μg mL^–1; MIC (VRE 1: VRE ATCC 700802; ATCC 700802, 24 h): 0.25 μg mL^–1; MIC (VRE 2: VRE ATCC 29212; ATCC 29212, 24 h): 0.25 μg mL^–1; MIC (M. smegmatis ATCC 607; ATCC 607, 72 h): ~1 μg mL^–1; time to complete bactericidal activity (MRSA DM21455): ≤ 8 h |
| melittin | – | – | – | – | – | – | – | – | – | – | – | – | – | – | – | haemolytic activity (rabbit erythrocytes): substantial haemolytic activity |
